PMC6256112, “Cannabinoid Receptor 2 Signalling Bias Elicited by 2,4,6-Trisubstituted 1,3,5-Triazines” (Frontiers in Pharmacology, 2018)
pEC50: −log10 of the molar value. Where two headings read alike, the source gives them in different places.

Key:
hCB2 [1] = molecular target: T1, hCB2 (Homo sapiens, UniProt P34972); assay: Radioligand competition binding with [3H]-CP 55,940 on hCB2-expressing HEK membranes; details: for hCB2 displacement of [3H]-CP 55,940 in 10 μM screen (in words): 10 μM heterologous competition screen, cut-off 60%; for inhibition at 10 µM: 1 h, 10 μM compound, displacement of 0.5 nM [3H]-CP 55,940, read-out: CB2 binding extent at 10 μM (%) (±SEM); for Reduction in hCB2 binding affinity compared to 15: compared to methylpiperazinyl-15; for Ki: heterologous competition vs [3H]-CP 55,940, read-out: CB2 pKi (±SEM) (converted)
T1 construct: expressed in transfected cells; host or cells: HEK Flp-in
T1 sequence (P34972 whole entry): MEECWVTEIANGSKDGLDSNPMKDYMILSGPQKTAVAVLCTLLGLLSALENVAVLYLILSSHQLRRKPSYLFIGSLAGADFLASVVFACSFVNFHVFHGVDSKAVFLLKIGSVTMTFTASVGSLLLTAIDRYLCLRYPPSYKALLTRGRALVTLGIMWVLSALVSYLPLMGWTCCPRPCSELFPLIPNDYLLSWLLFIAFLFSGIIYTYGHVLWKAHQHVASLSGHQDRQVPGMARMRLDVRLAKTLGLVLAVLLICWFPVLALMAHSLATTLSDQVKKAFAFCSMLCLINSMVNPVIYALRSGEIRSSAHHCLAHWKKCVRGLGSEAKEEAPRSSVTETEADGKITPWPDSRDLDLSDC

hCB1 = molecular target: T2, hCB1 (Homo sapiens, UniProt P21554); assay: Radioligand competition binding screen with [3H]-CP 55,940 on hCB1-expressing HEK membranes; details: for CB1 binding extent at 10 μM (%) (±SEM): 10 μM compound, displacement of 0.75 nM [3H]-CP 55,940; for CB2 selectivity over CB1 (in words): from CB1 binding at 10 μM versus CB2 affinity
T2 construct: expressed in transfected cells; host or cells: HEK (membranes)
T2 sequence (P21554 whole entry): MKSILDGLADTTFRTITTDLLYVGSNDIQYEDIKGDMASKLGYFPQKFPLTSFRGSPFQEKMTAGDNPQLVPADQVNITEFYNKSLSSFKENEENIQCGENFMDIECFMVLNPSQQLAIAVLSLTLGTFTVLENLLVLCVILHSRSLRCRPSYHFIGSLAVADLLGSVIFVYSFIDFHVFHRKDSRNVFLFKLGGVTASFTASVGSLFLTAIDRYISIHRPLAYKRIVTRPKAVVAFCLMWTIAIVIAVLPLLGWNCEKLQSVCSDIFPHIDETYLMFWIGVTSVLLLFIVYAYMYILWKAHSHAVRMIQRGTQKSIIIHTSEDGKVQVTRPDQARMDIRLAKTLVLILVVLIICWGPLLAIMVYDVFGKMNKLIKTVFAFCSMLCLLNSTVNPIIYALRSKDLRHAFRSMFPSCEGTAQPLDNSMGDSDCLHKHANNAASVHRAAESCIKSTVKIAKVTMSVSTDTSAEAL

HEK Flp-in wt cells = assay: CAMYEL cAMP assay in HEK Flp-in wt cells (non-hCB2-mediated effects); type: cell-based, human; details: for Non-hCB2-mediated effects on cAMP (in words): HEK Flp-in wt
hCB2 [2] = molecular target: T1, hCB2; assay: Comparison of efficacy/potency and operational-model bias analysis between hCB2 pathways, reference CP 55,940; type: cell-based
hCB2 [3] = molecular target: T1, hCB2; assay: Real-time CAMYEL BRET cAMP assay, forskolin-stimulated HEK Flp-in hCB2 cells; type: cell-based; details: for EC50: 10 and 14 approximate (non-hCB2-mediated effects), read-out: cAMP (5 min) pEC50 (±SEM) (converted)
Method: Cellular cAMP levels were measured using a real-time BRET biosensor (CAMYEL) as previously described ([Cawston et al., 2013]). In brief, cells were seeded in 10 cm dishes one day prior to transfection. The medium was then replaced and cells transfected with 5 μg of pcDNA3L-His-CAMYEL (ATCC, Manassas, VA, United States) using linear PEI (MW 25 kDa; Polysciences, Warrington, PA, United States) with a DNA:PEI ratio of 1:6. Approximately 24 h after transfection, cells were trypsinised and re-plated in poly-D-lysine treated white 96-well plates (Corning), at a density of 5–6 × 10^4 cells per well. For experiments involving pertussis toxin (PTX; Sigma-Aldrich) pre-treatment, cells were seeded in half the usual volume of medium, and then ∼5 h later, 2× concentrated PTX or vehicle (50% glycerol, […] Tris–HCl pH 7.5, 10 mM glycine, 500 mM NaCl) were prepared in medium and added to the existing plating medium (giving rise to a final PTX concentration of 100 ng mL^-1). Approximately 24 h after plating (or 16–20 h after applying PTX/vehicle in experiments involving PTX treatment), cells were washed once with Hank’s Balanced Salt Solution (HBSS, Thermo Fisher Scientific, catalogue #14025-134), and then equilibrated for 30 min in HBSS supplemented with 1 mg mL^-1 BSA. Coelenterazine h (final concentration 5 μM; NanoLight Technologies, Pinetop, AZ, United States) was added to each well and incubated for 5 min. Forskolin was added (final concentration 5 μM) and incubated for 6 min (allowing enough time for the induced cAMP increase to plateau), prior to vehicle/drug addition. All drugs and reagents were prepared in HBSS supplemented with 1 mg mL^-1 BSA. SR 144528 was a generous gift from Roche (Basel, Switzerland).
Assays were carried out in technical duplicate. Emissions were detected at 460 nm (Rluc) and 535 nm (YFP) with either a LUMIstar® Omega luminometer (BMG Labtech, Ortenberg, Germany) or CLARIOstar® (BMG Labtech). BRET ratios (535 nm emissions/460 nm emissions, where an increase in ratio corresponds to a decrease in cAMP) were normalised to pre-forskolin reads (i.e., with coelenterazine h present) to remove any variability present prior to addition of forskolin and drug/vehicle. A Lowess curve (GraphPad Prism) was fitted to individual technical replicates within an assay so that cAMP signalling data could be extrapolated from any time point as opposed to only those that were empirically measured (typically every 30–60 s). Data were normalised to matched vehicle (0%) and forskolin (100%) treatments, allowing compilation of data from independent experiments.

hCB2 [4] = molecular target: T1, hCB2; assay: pERK AlphaLISA assay, HEK Flp-in hCB2 cells; type: cell-based; details: for EC50: 4 min stimulation, 14 approximate (low potency), read-out: pERK (4 min) pEC50 (±SEM) (converted); for Time of maximal pERK response: time course experiment
hCB2 [5] = molecular target: T1, hCB2; assay: hCB2 internalisation assay (immunocytochemistry of surface receptor), HEK Flp-in hCB2 cells; type: cell-based
[6] = 10^ΔΔlogR, relative to CP 55,940
[7] = relative to reference ligand CP 55,940
[8] = 5 min post-drug, 5 μM forskolin
[9] = operational model transduction ratio

Molecule: CCOc1nc(NC23CC4CC(CC(C4)C2)C3)nc(N2CCN(CCCCCCNC(=O)OC(C)(C)C)CC2)n1 [Compound 9, tert-Butyl N-(6(4-(4-(Adamantan-1-yl)Amino)-6-Ethoxy-1,3,5-Triazin-2-yl)Piperazin-1-yl)Hexyl) Carbamate]
- hCB2 displacement of [3H]-CP 55,940 in 10 μM screen (in words) (hCB2 [1]): moderate binders
- inhibition at 10 µM (hCB2 [1]): 51.9%

Molecule: CCOc1nc(NC23CC4CC(CC(C4)C2)C3)nc(N2CCN(CCOCCOCCNC(=O)OC(C)(C)C)CC2)n1 [Compound 10, tert-Butyl N-(2-(2-(2-(4-(4-((Adamantan-1-yl)Amino)-6-Ethoxy-1,3,5-Triazin-2-yl)Piperazin-1-yl)Ethoxy) Ethoxy)Ethyl)Carbamate]
- CB1 binding extent at 10 μM (%) (±SEM) (hCB1): 16.7 (7.8) %
- CB2 selectivity over CB1 (in words) (hCB1): likely also CB2-selective
- Non-hCB2-mediated cAMP effects: fold less potent than cAMP inhibition in hCB2-expressing cells (HEK Flp-in wt cells; HEK Flp-in wt versus HEK Flp-in hCB2): ~23 fold
- Internalisation – pERK Bias factor (hCB2 [2]; [6]): 2.0
- cAMP – internalisation Bias factor (hCB2 [2]; [6]): 1.2
- cAMP – pERK Bias factor (hCB2 [2]; [6]): 2.4
- Between-pathway signalling bias (in words) (hCB2 [2]; relative to CP 55,940): did not demonstrate any indication of between-pathway bias
- Internalisation – pERK ΔΔlogR (±SEM) (hCB2 [2]; [7]): 0.31 (0.13)
- cAMP – internalisation ΔΔlogR (±SEM) (hCB2 [2]; [7]): 0.07 (0.16)
- cAMP – pERK ΔΔlogR (±SEM) (hCB2 [2]; [7]): 0.37 (0.10)
- inhibition at 10 µM (hCB2 [1]): 91.8%
- Reduction in hCB2 binding affinity compared to 15 (hCB2 [1]): 2–3 log units
- Ki (hCB2 [1]): 661 nM
- Behaviour in cAMP pathway (in words) (hCB2 [3]; 5 μM forskolin): partial agonists
- EC50 (hCB2 [3]; [8]): 105 nM
- cAMP (5 min) Emax (±SEM) (hCB2 [3]; 5 min post-drug, 5 μM forskolin, change relative to forskolin alone (100%), vehicle 0%, 10 and 14 approximate): –33.0 (0.9)^Δ %
- logR [log(τ/KA)] (±SEM) cAMP (hCB2 [3]; [9]): 6.90 (0.10)
- Behaviour in pERK pathway (in words) (hCB2 [4]; 4 min): equivalent efficacies to CP 55,940
- Emax (hCB2 [4]; 4 min, response above vehicle, normalised to U0126 (0%) and PMA (100%), for 14 efficacy at 10 μM, read-out: pERK (4 min) Emax (±SEM)): 10.2%
- EC50 (hCB2 [4]): 1070 nM
- logR [log(τ/KA)] (±SEM) pERK (hCB2 [4]; [9]): 6.06 (0.02)
- Time of maximal pERK response (hCB2 [4]): 4 min
- pEC50 (hCB2 [5]; 1 h stimulation): 7.05
- logR [log(τ/KA)] (±SEM) Internalisation (hCB2 [5]; [9]): 7.09 (0.10)

Molecule: CCOc1nc(NC23CC4CC(CC(C4)C2)C3)nc(N2CCN(CCN)CC2)n1 [Compound 11, N-(Adamantan-1-yl)-4-(4-(2-Aminoethyl)Piperazin-1-yl)-6-Ethoxy-1,3,5-Triazin-2-Amine]
- hCB2 displacement of [3H]-CP 55,940 in 10 μM screen (in words) (hCB2 [1]): moderate binders
- inhibition at 10 µM (hCB2 [1]): 40.1%

Molecule: CCOc1nc(NC23CC4CC(CC(C4)C2)C3)nc(N2CCN(CCCCCCN)CC2)n1 [Compound 12, N-(Adamantan-1-yl)-4-(4-(6-Aminohexyl)Piperazin-1-yl)-6-Ethoxy-1,3,5-Triazin-2-Amine]
- hCB2 displacement of [3H]-CP 55,940 in 10 μM screen (in words) (hCB2 [1]): moderate binders
- inhibition at 10 µM (hCB2 [1]): 43.5%

Molecule: CCOc1nc(NC23CC4CC(CC(C4)C2)C3)nc(N2CCN(CCOCCOCCN)CC2)n1 [Compound 13, N-(Adamantan-1-yl)-4-(4-(2-(2-(2-Aminoethoxy) Ethoxy)Ethyl)Piperazin-1-yl)-6-Ethoxy-1,3,5-Triazin-2-Amine]
- CB1 binding extent at 10 μM (%) (±SEM) (hCB1): 29.6 (7.6) %
- CB2 selectivity over CB1 (in words) (hCB1): likely also CB2-selective
- Non-hCB2-mediated effects on cAMP (in words) (HEK Flp-in wt cells): did not exhibit any measurable non-hCB2-mediated effects
- inhibition at 10 µM (hCB2 [1]): 81.1%
- Reduction in hCB2 binding affinity compared to 15 (hCB2 [1]): 2–3 log units
- Ki (hCB2 [1]): 1820 nM
- Behaviour in cAMP pathway (in words) (hCB2 [3]; 5 μM forskolin): unconventional transient inverse agonist
- Time to maximum cAMP effect after drug addition (hCB2 [3]; 5 μM forskolin): ~4 min
- Time to return to cAMP concentration induced by forskolin alone (hCB2 [3]; 5 μM forskolin): 10 to 15 min
- EC50 (hCB2 [3]; [8]): 794 nM
- PTX sensitivity of cAMP signal (in words) (hCB2 [3]; PTX 100 ng mL-1 pre-treatment 16–20 h): completely PTX-sensitive
- Behaviour in pERK pathway (in words) (hCB2 [4]; 4 min): weak partial agonists
- EC50 (hCB2 [4]): 537 nM
- Time of maximal pERK response (hCB2 [4]): 4 min
- Behaviour in internalisation pathway (in words) (hCB2 [5]; 1 h stimulation): neutral antagonist
- Internalisation (1 h) pEC50 (±SEM) (hCB2 [5]; 1 h stimulation): Not Measurable
- Emax at 10 µM (hCB2 [5]; read-out: Internalisation (1 h) Emax (±SEM), 1 h stimulation, change in surface hCB2 relative to vehicle-treated (100%), for 13 efficacy at 10 μM): 6.2%

Molecule: SR 144528 [reference compound]
- Non-hCB2-mediated effects on cAMP (in words) (HEK Flp-in wt cells): did not exhibit any measurable non-hCB2-mediated effects
- PTX sensitivity of cAMP signal (in words) (hCB2 [3]): PTX-sensitive
- Time to maximum cAMP effect after drug addition (hCB2 [3]): approximately 6 min
- cAMP (5 min) Emax (±SEM) (hCB2 [3]): 55.4%
